Active and inactive are the calls of the source. The calls are words filed in the database; no cut-off is given here.
Assays:
[1] = species on record: Rattus norvegicus; assay: Activity against NO-mediated vasorelaxation of KCl-induced contractile tone in Wistar rat thoracic aortic ring; format: functional; settings: Aorta
[2] = biological target: T1, Type-1 angiotensin II receptor (Homo sapiens) (UniProt P30556); assay: Antagonist activity against AT1 receptor after 20 min preincubation; format: functional
T1 sequence (whole entry): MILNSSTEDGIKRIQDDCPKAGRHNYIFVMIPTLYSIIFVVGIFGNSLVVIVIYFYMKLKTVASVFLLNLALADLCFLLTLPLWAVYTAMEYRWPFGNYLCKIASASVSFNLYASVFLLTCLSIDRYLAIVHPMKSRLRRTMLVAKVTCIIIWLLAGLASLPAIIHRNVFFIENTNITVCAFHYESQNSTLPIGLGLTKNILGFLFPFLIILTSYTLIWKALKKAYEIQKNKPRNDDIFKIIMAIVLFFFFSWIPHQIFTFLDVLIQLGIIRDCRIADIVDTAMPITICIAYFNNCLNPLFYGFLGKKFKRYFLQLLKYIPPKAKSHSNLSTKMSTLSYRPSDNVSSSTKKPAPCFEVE

[3] = biological target: T1, Type-1 angiotensin II receptor (Homo sapiens); assay: Antagonist activity against AT1 receptor after 60 min preincubation; format: functional
[4] = species on record: Rattus norvegicus; assay: Activity against NO-mediated vasorelaxation of KCl-induced contractile tone in Wistar rat thoracic aortic ring at 1 uM; format: functional, Aorta; design: scale not given: the % may be the effect or the level left
[5] = test system: Rattus norvegicus; assay: Antihypertrophic activity in Wistar rat at 21.3 mg/kg, ip; format: functional, organism-based; design: dose 21.3 mg/kg
[6] = species on record: Rattus norvegicus; assay: Inhibition of NO-mediated vasorelaxation of KCl-induced contractile tone in Wistar rat thoracic aortic ring; format: functional; settings: Aorta
[7] = test system: Plasma; assay: Inhibition of ADP-mediated platelet aggregation in Wistar rat platelet-rich plasma at 100 uM; format: functional; design: scale not given: the % may be the effect or the level left

SMILES	Emax [1] [%]	Kb [2]	Kb [3] [nM]	Activity [4] [%]	Activity [5]	IC50 [6] [nM]	Activity ([4]; Aorta)	Activity [7] [%]
CCCCc1nc(Cl)c(COC(=O)c2cccc(C(C)O[N+](=O)[O-])c2)n1Cc1ccc(-c2ccccc2-c2nn[nH]n2)cc1 (stereo not given)	47	inactive	12	<25	–	–	–	–
C[C@H](CS)C(=O)N1CCC[C@H]1C(=O)O	–	–	–	–	Active	–	–	–
CCCCc1nc(Cl)c(COC(=O)c2ccc(CO[N+](=O)[O-])cc2)n1Cc1ccc(-c2ccccc2-c2nn[nH]n2)cc1	100	19 nM	–	–	–	66.1	Active	–
CCCCc1nc(Cl)c(COC(=O)c2cccc(CO[N+](=O)[O-])n2)n1Cc1ccc(-c2ccccc2-c2nn[nH]n2)cc1	100	8 nM	–	<25	–	12300	–	–
CCCCc1nc(Cl)c(COC(=O)c2ccc(C(C)O[N+](=O)[O-])cc2)n1Cc1ccc(-c2ccccc2-c2nn[nH]n2)cc1 (stereo not given)	100	inactive	8	<25	–	7760	–	–
CCCCc1nc(Cl)c(C(=O)Oc2ccc(CO[N+](=O)[O-])cc2)n1Cc1ccc(-c2ccccc2-c2nn[nH]n2)cc1	100	inactive	–	–	–	275	Active	–
CCCCc1nc(Cl)c(CO)n1Cc1ccc(-c2ccccc2-c2nnn[nH]2)cc1 [LOSARTAN]	–	–	–	–	Active	–	–	50
CCCCc1nc(Cl)c(C(=O)Oc2cccc(CO[N+](=O)[O-])c2)n1Cc1ccc(-c2ccccc2-c2nn[nH]n2)cc1	100	–	–	<25	–	6030	–	–
CCCCc1nc(Cl)c(COC(=O)c2cccc(CO[N+](=O)[O-])c2)n1Cc1ccc(-c2ccccc2-c2nn[nH]n2)cc1	100	–	10	–	Active	275	Active	41
CCCCc1nc(Cl)c(COC(=O)CCCCO[N+](=O)[O-])n1Cc1ccc(-c2ccccc2-c2nn[nH]n2)cc1	100	16 nM	–	–	–	851	–	–
CCCCc1nc(Cl)c(CO[N+](=O)[O-])n1Cc1ccc(-c2ccccc2-c2nn[nH]n2)cc1 [LOSARTAN NITROOXY ESTER]	100	inactive	3	<25	–	15100	–	–
CCCCc1nc(Cl)c(COC(=O)c2c(C)ccc(CO[N+](=O)[O-])c2C)n1Cc1ccc(-c2ccccc2-c2nn[nH]n2)cc1	100	inactive	–	<25	–	32400	–	–
